Test results as given in ChEMBL document CHEMBL3727362, “Tetrahydronaphthyridine and tetrahydropyrido[4,3-D]pyrimidine compounds and compositions thereof useful for the treatment of inflammatory and respiratory diseases” (2014).

How the values were obtained:
[1] = target: T1, P2X2/P2X3 heterotrimeric receptor (Homo sapiens) (UniProt Q9UBL9+P56373); assay: Antagonist activity against human P2X2/3 receptor expressed in HEK293/1321N1 cells assessed as inhibition of alpha,beta-meATP/ATP-induced calcium influx at 3 uM by Fluo-4 dye based FLIPR assay; assay type: functional, cell-based
[2] = target: T1, P2X2/P2X3 heterotrimeric receptor (Homo sapiens); assay: Antagonist activity against human P2X2/3 receptor expressed in HEK293/1321N1 cells assessed as inhibition of alpha,beta-meATP/ATP-induced calcium influx at 10 uM by Fluo-4 dye based FLIPR assay; assay type: functional, cell-based

inhibition [1] [%] | inhibition [2] [%] | Structure (SMILES)
> 75 |  | Cc1ccc(CNc2ncnc3c2CN(c2ccc(C)cn2)CC3)cc1
0 |  | Cc1ccc(N2CCc3ncnc(NCc4cc(Cl)cc(Cl)c4)c3C2)nc1
> 75 |  | Cc1ccc(N2CCc3ncnc(NCc4ccccc4OC(F)F)c3C2)nc1
0 |  | COc1cc(CNc2ncnc3c2CN(c2ccc(C)cn2)CC3)cc(OC)c1
> 75 |  | Cc1ccc(N2CCc3ncnc(NCc4cccc(F)c4)c3C2)nc1
0 |  | Cc1ccc(N2CCc3ncnc(NCc4cc(C(F)(F)F)cc(C(F)(F)F)c4)c3C2)nc1
> 75 |  | Cc1ccc(N2CCc3ncnc(NCCc4ccc(Cl)cc4)c3C2)nc1
0 |  | Cc1ccc(N2CCc3ncnc(N(C)Cc4ccccc4)c3C2)nc1
 | 0 | CC1(C)C(=O)Nc2cc(Nc3ncnc4c3CN(c3ncccc3Cl)CC4)ccc21
> 75 | > 75 | Cc1ccc(N2CCc3ncnc(NCCc4ccccc4Cl)c3C2)nc1
> 75 |  | Cc1ccc(N2CCc3ncnc(NCc4ccc(F)c(C)c4)c3C2)nc1
0 | 0 | Cc1ccc(N2CCc3ncnc(NCc4cc(C(F)(F)F)ccc4Cl)c3C2)nc1
25 | > 75 | COc1ccc(CN(C)c2ncnc3c2CN(c2ccc(C)cn2)CC3)cc1OC
0 |  | O=S(=O)(c1ccc(Nc2ncnc3c2CN(c2ncccc2Cl)CC3)cc1)C(F)(F)F
> 75 |  | Cc1ccc(N2CCc3ncnc(NCc4ccc(C(F)(F)F)cc4)c3C2)nc1
50 |  | COc1ccc(CCNc2ncnc3c2CN(c2ccc(C)cn2)CC3)cc1OC
50 |  | Cc1ccc(N2CCc3ncnc(NCc4ccc(OC(F)(F)F)cc4)c3C2)nc1
0 |  | CN1CC(C)(C)c2ccc(Nc3ncnc4c3CN(c3ncccc3Cl)CC4)cc21
0 |  | COc1ccc(CN(C)c2ncnc3c2CN(c2ccc(C)cn2)CC3)cc1
> 75 |  | Cc1ccc(CCNc2ncnc3c2CN(c2ccc(C)cn2)CC3)cc1
50 |  | Cc1ccc(N2CCc3ncnc(NCc4cc(F)ccc4F)c3C2)nc1
> 75 |  | Cc1ccc(N2CCc3ncnc(NCc4ccc(F)c(F)c4)c3C2)nc1
50 |  | Cc1ccc(N2CCc3ncnc(NCc4cc(Cl)ccc4F)c3C2)nc1

inhibition [1] [%] | inhibition [2] [%] | Structure (SMILES)
 | 0 | Cc1ccc(N2CCc3ncnc(Nc4ccc(C(F)(F)F)cc4)c3C2)cc1
 | > 75 | COc1ccccc1CNc1ncnc2c1CN(c1ccc(C)cn1)CC2
25 |  | Cc1ccc(N2CCc3ncnc(NCc4ccc(C)cc4C)c3C2)nc1
50 |  | Cc1ccc(N2CCc3ncnc(NCc4cccc(C(F)(F)F)c4)c3C2)nc1
> 75 | > 75 | Cc1ccc(N2CCc3ncnc(NCCc4cccc(C(F)(F)F)c4)c3C2)nc1
 | 0 | Cc1ccccc1N1CCc2ncnc(Nc3ccc(C(F)(F)F)cc3)c2C1
> 75 |  | Cc1ccc(N2CCc3ncnc(NCc4ccccc4OC(F)(F)F)c3C2)nc1
> 75 | > 75 | COc1cccc(CNc2ncnc3c2CN(c2ccc(C)cn2)CC3)c1
> 75 |  | Cc1ccc(N2CCc3ncnc(NCc4cccc(F)c4F)c3C2)nc1
50 |  | Cc1ccc(N2CCc3ncnc(NCCc4ccc(Cl)c(Cl)c4)c3C2)nc1
0 |  | Cc1ccc(N2CCc3ncnc(NCc4ccc(Cl)cc4Cl)c3C2)nc1
> 75 |  | COc1ccc(CCNc2ncnc3c2CN(c2ccc(C)cn2)CC3)cc1
> 75 |  | Cc1ccc(N2CCc3ncnc(NCc4ccc(C(F)(F)F)cc4F)c3C2)nc1
 | 0 | Cc1ccc(N2CCc3ncnc(NCC4(O)CCCC(C)(C)C4)c3C2)nc1 (centres undefined)
0 |  | CCc1ccc(CN(C)c2ncnc3c2CN(c2ccc(C)cn2)CC3)cc1
0 |  | Cc1ccc(N2CCc3ncnc(N(C)Cc4ccc(C(F)(F)F)cc4)c3C2)nc1
0 |  | Cc1ccc(N2CCc3ncnc(NCc4cc(C(F)(F)F)ccc4F)c3C2)nc1
0 | 50 | Cc1ccc(N2CCc3ncnc(N(C)Cc4ccc(F)cc4)c3C2)nc1
50 |  | Cc1ccc(N2CCc3ncnc(NCc4ccccc4C(F)(F)F)c3C2)nc1
 | 0 | FC(F)(F)c1ccc(Nc2ncnc3c2CN(c2ncccc2Cl)CC3)cn1
> 75 |  | Cc1ccc(N2CCc3ncnc(NCCc4ccccc4)c3C2)nc1
25 |  | Cc1ccc(CN(C)c2ncnc3c2CN(c2ccc(C)cn2)CC3)cc1
 | > 75 | Cc1ccc(N2CCc3ncnc(NCc4ccccc4C)c3C2)nc1

inhibition [1] [%] | inhibition [2] [%] | Structure (SMILES)
> 75 |  | Cc1ccc(N2CCc3ncnc(NCc4ccccc4Cl)c3C2)nc1
0 |  | Cc1ccc(N2CCc3ncnc(NCc4ccc(F)c(C(F)(F)F)c4)c3C2)nc1
> 75 |  | Cc1ccc(N2CCc3ncnc(NCc4ccc(Cl)cc4)c3C2)nc1
0 |  | Clc1cccnc1N1CCc2ncnc(Nc3ccccc3)c2C1
0 |  | COc1ccccc1CN(C)c1ncnc2c1CN(c1ccc(C)cn1)CC2
 | > 75 | Cc1ccc(N2CCc3ncnc(NCC4CCCCC4)c3C2)nc1
50 |  | COc1cc(CCNc2ncnc3c2CN(c2ccc(C)cn2)CC3)cc(OC)c1
0 |  | Cc1ccc(N2CCc3ncnc(NCc4cc(F)cc(C(F)(F)F)c4)c3C2)nc1
0 |  | COc1cccc(CN(C)c2ncnc3c2CN(c2ccc(C)cn2)CC3)c1
0 |  | Cc1ccc(N2CCc3ncnc(NCc4ccc(C(C)C)cc4)c3C2)nc1
0 |  | Cc1ccc(N2CCc3ncnc(N(C)Cc4ccc(Cl)cc4)c3C2)nc1
0 |  | Cc1ccc(N2CCc3ncnc(NCc4ccc(C(C)(C)C)cc4)c3C2)nc1
50 |  | Cc1ccc(N2CCc3ncnc(NCc4ccc(Cl)cc4F)c3C2)nc1
> 75 |  | COc1cccc(CCNc2ncnc3c2CN(c2ccc(C)cn2)CC3)c1
> 75 |  | Cc1ccc(N2CCc3ncnc(NCc4cccc(Cl)c4)c3C2)nc1
> 75 |  | COc1ccc(CNc2ncnc3c2CN(c2ccc(C)cn2)CC3)cc1
 | 0 | CC1(C)CNc2cc(Nc3ncnc4c3CN(c3ncccc3Cl)CC4)ccc21
> 75 |  | Cc1ccc(N2CCc3ncnc(NCc4ccc5c(c4)OCO5)c3C2)nc1
0 |  | Cc1ccc(N2CCc3ncnc(NCc4ccc(Cl)c(Cl)c4)c3C2)nc1
0 |  | Cc1ccc(N2CCc3ncnc(N(C)Cc4cccc(Cl)c4)c3C2)nc1
0 |  | Cc1ccc(N2CCc3ncnc(NCc4cccc(C)c4C)c3C2)nc1
> 75 |  | Cc1ccc(N2CCc3ncnc(NC(C)c4ccc(F)cc4)c3C2)nc1 (centres undefined)
